From a melting point compilation (Tetko et al.; mined from patent text by program, amines drawn as free bases though some values may be those of a salt)

| SMILES | melting point [°C] |
| --- | --- |
| O=CN(O)CCCP1(=O)ON2CCN(O1)OP(=O)(CCCN(O)C=O)O2 (stereo not given) | 112 to 118 |
| O=C(Oc1ccccc1)N1Cc2ccccc2C2(Cc3ccc(Cl)cc3O2)C1 (stereo not given) | 138 to 140 |
| O=C(CCc1ccccc1)Nc1cc(-c2nnc(CCc3cccc(C(F)(F)F)c3)o2)ccn1 | 169 to 170 |
| COc1ccc(C2=NC(C)(C)CO2)c(Cc2ccccc2)c1OC | 81 to 82 |
| c1ccc(-c2cc3nnc(-c4ccccc4)n3nc2OCc2cscn2)cc1 | 236 |
| CC(C)(C)NS(=O)(=O)c1cccc(NC(=O)c2cnn3c(C(F)F)cc(-c4ccc(C(F)(F)F)cc4)nc23)c1 | 228 |
| CCN(CC)C(=O)c1cc(-c2ccccc2)c(=O)n2c1-c1ccccc1C2 | 170 to 172 |
| Nc1c(F)c(N2CCC3(CC3N)C2)c(F)c2c1c(=O)c(C(=O)O)cn2[C@@H]1C[C@@H]1F (stereo not given in full) | 180 to 181 |
| CC1(c2ccccc2)Cc2cc(O)c(Cl)c(Cl)c2C1=O (stereo not given) | 194 to 196 |
| CC(=O)Nc1c(I)c(C(=O)NC(CO)CO)c(I)c(C(=O)NC(CO)CO)c1I | > 270 |
| COc1ccc(Cn2c(=O)c(=NNc3ccccc3)c(=O)n(CCC(C)C)c3ccccc32)cc1 | 189 to 191 |
| O=C(CCC12CCC(=O)N1C(=O)CC2)OCc1ccc(Cl)cc1 | 141 to 142 |
| COc1ccc(C2=NN(c3ccc4c(c3)COC4=O)C(=O)[C@H]3CC=CC[C@@H]23)cc1Cl (relative stereo) | 212 to 213 |
| CC(=O)CC1=C(C#N)C(c2cccc3nonc23)c2c[nH]nc2N1 (stereo not given) | 200 |
| CCC(Nc1cc(C)nc(Oc2c(C)cc(C)cc2C)c1C(=O)OC)C(C)O (stereo not given) | 116 to 120 |
| CC(=O)C1CCC2C3CCC4CC(O)CCC4(C)C3C(OC(=O)CCl)CC12C (stereo not given) | 83 to 86 |
| CC(=O)OCc1cc2cc(-c3ccc(OC(F)(F)F)cc3)ccc2n1Cc1ccc(C)cc1 | 125 to 126 |
| Cc1nc2c(s1)C(=O)N(C(C)(C)C)C2=O | 106 |
| Cc1ccc(S(=O)(=O)Nc2cccc3cc(C(N)=O)[nH]c23)cc1 | 312 to 313 |
| CC/C=C\CCCCCCCCCCOc1ccc(C(=O)O)o1 | 89 to 90 |
| Nc1nc(Cl)nc2ccccc12 | 232 |

| SMILES | melting point [°C] |
| --- | --- |
| CN1CCSC1=NC(=Nc1ccccc1)N1CCCCC1 | 122 to 124 |
| CCCCCc1cccc2c1C(=O)N(OC1C(CO)OC(n3cnc4c(N)ncnc43)C1O)C2=O (stereo not given) | 159 to 160 |
| CN[C@@H]1CCN(c2ccc3c(NC(=O)CC4CCCCC4)c(Cl)ccc3n2)C1 | 169 |
| O=C1c2cccc(Sc3ccccc3)c2C(=O)c2cccc(Nc3cccc([N+](=O)[O-])c3)c21 | 246 |
| O=c1c2cc(F)ccc2ncn1CCN1CC=C(c2c[nH]c3ccccc23)CC1 | 138 |
| O=C1Nc2ccc([N+](=O)[O-])cc2C1c1ncnc2nn(C3CCCCC3)cc12 (stereo not given) | 301 to 304 |
| CCOP(=O)(/C=C/c1cn(-c2ccccc2)nc1OCc1ccc(OCc2nc(-c3ccc(OC)c(C(=O)OC)c3)oc2C)c(OC)c1)OCC | 144 to 145 |
| CCCCc1cc(=O)c2ccccc2n1Cc1ccc(-c2ccccc2C(=O)O)cc1 | > 260 |
| COc1cc2nc(N3CCN(c4nccs4)CC3)nc(N)c2cc1OC | 220 to 221 |
| CC(C)Cn1c(=O)n(C)c(=O)c2c(SCCCO)c(C(=O)c3cccnc3)sc21 | 152 to 155 |
| CC(C)(O)CONC(=O)c1ccc(F)c(F)c1Nc1ccc(I)cc1Cl | 140 to 153 |
| COC(=O)/C=C/c1ccc(C)cc1C#N | 95 to 96 |
| Oc1cccc2nscc12 | 184 to 186 |
| COc1ccc(-c2ccc(OC)nn2)c(OCC(O)CNC(C)(C)C)c1 (stereo not given) | 114 to 116 |
| CCOC(=O)COc1ccc2c(c1)C(=O)CC1(CCCCC1)O2 | 72 to 73 |
| CCN1C(=O)CSC1=NOC(=O)N(C)SC(Cl)(Cl)Cl | 126 to 128 |
| Cc1cccc(N(C)C(=O)COc2cc(C(F)(F)F)no2)c1 | 54 to 55.5 |
| COc1cc(OC)c(-c2cccs2)cc1/C=C/C(=O)c1ccc(S(=O)(=O)NCCN2CCOCC2)cc1 | 171 to 172 |
| COC(=O)c1ccc(N(N)C(C)=O)c(N)c1 | 175 to 178 |
| CCOC(=O)C(Cc1ccc(-c2cccc(N(C)C(=O)Nc3ccc(N(C)C)cc3)c2)cc1)Nc1ccccc1C(=O)c1ccccc1 (stereo not given) | 75 |
| CCOC(=O)CCc1c[nH]c2cnc(-n3cnnc3)cc12 | 215 to 218 |

Other lines, results leading:

| melting point [°C] | SMILES |
| --- | --- |
| 154 to 156 | CCCc1c(OCCCS(=O)(=O)c2ccc(C(=O)CCC(=O)O)cc2F)ccc(C(C)=O)c1O |
| 170 to 172 | COCC(C)(Oc1ccc(CC(=O)Nc2cc(C)cc(C)c2)cc1)C(=O)O (stereo not given) |
| 182 to 188 | CNC(=O)c1ccc(-c2n[nH]c3c2Cc2ccccc2-3)cc1 |
| 131 to 132 | CC1CC(=O)NN=C1c1ccc(N2CCC(CN)CC2)c([N+](=O)[O-])c1 (stereo not given) |
| 215 to 220 | CCN(CC)C(=O)NC(C)(CC)N=NC(C)(CC)NC(=O)N(CC)CC (stereo not given) |
| 195 | CC(=NNc1ccc(C2=NNC(=O)CO2)cc1)c1ccncc1 |
| 163 to 165 | CNc1nc(C2(S(C)=O)C=CC=C(c3ccccc3)C2)c2cc(OC)c(OC)cc2n1 (stereo not given) |
| 159 to 161 | COC1(c2cc(F)cc(Oc3nc(-c4ccccc4)c(-c4ccc(S(N)(=O)=O)cc4)o3)c2)CCOCC1 |
| 124 to 129 | CCc1nc2c(C)cc(C)nc2n1Cc1ccc(C(=Cc2nnn[nH]2)c2ccc(C(F)(F)F)cc2)cc1 |
| 213 | CC#CCOc1ccc(S(=O)(=O)C(C(=O)NO)c2cccc3ccccc23)cc1 (stereo not given) |
| > 200 | N#Cc1c(N2CCc3ccccc3CC2)nc2[nH]ccn2c1=O |
| 131 to 132 | O=C(O)CCc1cccc(OCc2ccccc2Cl)c1OCc1ccccc1Cl |
| 155 to 156 | CCC(=Cc1ccc(OCCCC(=O)O)c(Cl)c1Cl)[N+](=O)[O-] |
| 115 to 116 | CCCS(=O)c1cc(OCCOc2ccccc2)ccc1C (stereo not given) |
| 124 to 125 | CCCCc1nn2cc(C)nc2n1Cc1ccc(-c2ccccc2-c2nnn[nH]2)cc1 |
| 112 to 113 | CC(=O)Oc1cc(/C=C/c2ccc(OC(=O)C(C)(C)Oc3ccc(C(=O)c4ccc(Cl)cc4)cc3)cc2)cc(OC(C)=O)c1 |
| 238 to 242 | CN1CCN(c2ccnc3c(NC(=O)c4c(Cl)cccc4Cl)cccc23)C1=O |
| 113 to 115 | CC(C)N1CCc2ccc(C(=O)CCC(=O)N3CCC(c4ccc(Cl)cc4)CC3)cc2C1 |
| 132 | CNc1c([N+](=O)[O-])cc(C)cc1[N+](=O)[O-] |
| 125 to 126 | C=C(C[C@@H](Cc1ccccc1)C(=O)N1CCOCC1)[C@H](C)[C@H](Cc1ccccc1)C(=O)N1CCOCC1 (relative stereo) |
| 163 to 165 | CC(C)NC(=O)CN1CCN(CCc2ccc(-c3cccc(N)n3)cc2)CC1 |
| 86 to 91 | O=[N+]([O-])c1ccc(CCNCCc2ccc([N+](=O)[O-])cc2)cc1 |
| 100 to 102 | CC(C)(C)C(O)(Cn1cncn1)C1CCCCC1 (stereo not given) |
| 106 to 107 | COC(=O)Cc1cn(Cc2ccccc2)nc1OCCCc1cc(O)nn1Cc1ccc(Cl)cc1Cl |
| 102 | CCCCCCCCCCc1ccc(-c2ccc(OC)c(F)c2)cc1 |
| 195 to 196 | COc1cc(OC)cc(-c2nc(C)nn2-c2ccc(S(N)(=O)=O)cn2)c1 |
| 117 to 120 | N#CN1CCC(Oc2c(F)c(F)c(F)c(F)c2F)(c2ccccc2)CC1 |

| melting point [°C] | SMILES |
| --- | --- |
| 228 to 230 | Cc1c(-c2ccc(O)cc2)sc(C=O)c1-c1ccc(O)c(C=O)c1 |
| 171 | O=[N+]([O-])c1ccc(NCCNS(=O)(=O)c2ccccc2)cc1 |
| 89 | CCCOC(=O)CCNCC(O)COc1ccccc1C#N (stereo not given) |
| 92 to 94 | CCCCCCCCCCCCCCOc1cc(O)cc(C(=O)OC)c1 |
| 99 to 100 | CCOC(=O)CCc1oc(-n2cncn2)nc1-c1ccc(Cl)cc1 |
| 204 to 206 | CCCCc1nc([N+](=O)[O-])c(CO)n1Cc1ccc(-c2ccccc2C(=O)O)cc1 |
| 41 to 43 | COC(=O)c1cc(I)cc(Cl)c1OC |
| 154 to 155 | CCc1cc2c(Cl)cc(F)c(-n3c(=O)cc(C(F)(F)F)[nH]c3=O)c2o1 |
| 91 to 92 | Cc1c(-c2ccccc2)oc2c(OCCCCBr)cccc2c1=O |
| 123 | CC(=O)OC1CSC(Oc2ccc(F)nc2)C(OC(C)=O)C1OC(C)=O (stereo not given) |
| 199 to 200 | COc1c(F)c(F)c(C(=O)C=C2OC(=O)c3ccccc32)c(F)c1F |
| 182 to 184 | CCC(=O)N1CCC(NC(=O)Nc2ccc(Cl)c(C(F)(F)F)c2)CC1 |
| 194 to 195 | CC1(C)CCc2c(-c3ccoc3)nc3sc4c(NCCCN5CCCC5=O)ncnc4c3c2C1 |
| 178 to 183 | C=CCN1CC(c2ccccc2)=C(O)C1=O |
| 168 to 170 | O=Cc1cnn2c(-c3cccc(C(F)(F)F)c3)ccnc12 |
| 241 to 242 | COCCCCCCOc1ccc(C#Cc2ccc(C(=O)O)cc2)cc1C12CC3CC(CC(C3)C1)C2 |
| 101 to 103 | O=C(CS(=O)(=O)c1ccccc1)c1ccccn1 |
| 117 to 119 | CC(c1ccc(Br)cc1)N(O)C(=O)NCCO (stereo not given) |
| 158 | CCOC(=O)C(C)(C)c1ccc(-n2c(-c3cc(-c4cnc5ccccc5c4)ccn3)cn(C)c2=O)cc1 |
| 193 to 195 | Cc1nnsc1C(=O)Nc1ccc(-n2nc(C(F)(F)F)cc2C#N)cc1 |
| 96 to 97 | COc1ccc2c(n1)c(CC[N+](=O)[O-])c1n2CCCC1 |
| 84 to 85 | CCCC(C)(C)C(=O)NC1CCCNC(=O)C1 (stereo not given) |
| 205 to 208 | O=S(=O)(Nc1cccc(Br)n1)c1cc(S(=O)(=O)Nc2cccc(Br)n2)c2ccccc2c1 |
| 165 to 167 | CC(C)(C)OC(=O)NCC(CC(=O)Nc1ccccc1)c1ccc(Cl)cc1 (stereo not given) |
| 166 | COC(=O)C1CC(O)CN1C(=O)c1cc2c(cc1[N+](=O)[O-])OCO2 (stereo not given) |
| 121 to 122 | CC1(C)CC(c2ccc(F)cc2)=C(/C=C/[C@H]2C[C@H](O)CC(=O)O2)C(C)(C)C1 (relative stereo) |
